According to patent US20240101667A1, “METHODS FOR IDENTIFYING LILRB-BLOCKING ANTIBODIES” (THE BOARD OF REGENTS OF THE UNIVERSITY OF TEXAS SYSTEM, priority 2020, published 2024):
Where a SMILES comes first, the peptide text is derived from it. The star is where a group is joined. Cbz = O=C(OCc1ccccc1)*; CH2F = FC*

Columns and labels:
Type in all cases: cell-based, human
[1] = test system: THP-1, Molm13, MV4 AML cells; assay: AML cell death / growth in plates coated with anti-LILRB3 (PI staining); conditions: QNZ 10 μM
Procedure: Cell culture. THP-1, MV4-11, Molm13, U937, C1498 and 293T cells were purchased from ATCC. AML cell lines were cultured in RPMI-1640 with 10% FBS. Human anti-LILRB3 with the N297A mutation was coated onto the plate to activate LILRB3 signaling, and plates coated with human IgG (N297A) were used as controls. Cells infected with virus were cultured for at least an additional 3 weeks before analysis of LILRB3 signaling. Dead cells were identified using PI staining. Primary human T cells were isolated by autoMACS from donor PBMCs, stimulated with anti-CD3 and anti-CD28, and cultured in RPMI-1640 in the presence of IL-2. For the cytotoxic T lymphocyte assay, human AML cells were stained with CFSE and mixed at different ratios with activated T cells. After 10 hours, the percentage of PI-positive CFSE-stained AML cells was determined by FACS.

[2] = test system: NF-κB signaling; assay: NF-κB reporter assay in THP-1-Lucia NF-κB cells; conditions: for NF-κB reporter activity activated by LILRB3: THP-1-Lucia cells activated with anti-LILRB3 antibody
Procedure: (§1) NF-κB reporter assay and LILRB3 chimeric receptor reporter assay. THP-1-Lucia™ NF-κB cells were purchased from InvivoGen. Human anti-LILRB3 antibody with the N297A mutation was coated onto the plate to activate LILRB3 signaling, and plates coated with hIgG (N297A) were used as the control. The activation of NF-κB signaling was evaluated by monitoring luciferase signal. Infected THP-1 reporter cells were cultured for an additional month before stimulation with anti-LILRB3. For the NF-κB reporter assay conducted in 293T cells, an NF-κB-driven firefly luciferase reporter plasmid co-transfected with a plasmid encoding CMV-driven Renilla luciferase along with plasmids expressing LILRB3, TRAF2, or cFLIP were transfected into cells. The luciferase activity was detected using the Dual-Luciferase® Reporter (DLR™) Assay System (Promega). LILRB3 chimeric receptor reporter cells were constructed as the inventors described (Deng et al., 2014; 2018; Kang et al., 2015), with LILRB3-ECD fused with the transmembrane and intracellular domains of paired immunoglobulin-like receptor β, which signals through the adaptor DAP-12 to activate the NFAT promoter.

[3] = test system: NF-κB signaling; assay: NF-κB reporter assay in 293T cells
Procedure: as §1

Structure (SMILES): Nc1ccc2ncnc(NCCc3ccc(Oc4ccccc4)cc3)c2c1 [QNZ]
- effect of LILRB3 on survival of THP-1 cells [1]: partially abolished the effect of LILRB3 on survival of THP-1 cells

Structure (SMILES): CC[C@H](C)[C@H](NC(=O)OCc1ccccc1)C(=O)N[C@@H](CCC(=O)OC)C(=O)N[C@H](C(=O)N[C@@H](CC(=O)OC)C(=O)CF)[C@@H](C)O [z-IETD-FMK] (Cbz-IE(OMe)TD(OMe)-CH2F)
- NF-κB reporter activity activated by LILRB3 [2]: inhibited the NF-κB reporter activity

Structure (SMILES): COC(=O)C[C@H](NC(=O)[C@H](C)NC(=O)[C@@H](NC(=O)OCc1ccccc1)C(C)C)C(=O)CF [z-VAD-FMK] (Cbz-Val-Ala-Asp(OMe)-CH2F)
- NF-κB reporter activity activated by LILRB3 [2]: inhibited the NF-κB reporter activity
- LILRB3-induced NF-κB at low concentration of LPS ([2]; THP-1 cells): blocked LILRB3-induced NF-κB
- ability of LILRB3 to stimulate NF-κB through TRAF2 ([3]; 293T cells co-transfected with TRAF2 or LILRB3): blocked the ability of LILRB3 to stimulate NF-κB through TRAF2
- LILRB3-induced NF-κB activity in 293T cells ([3]; tet-on cFLIP, 0.2 ug/ml of dox): blocked LILRB3-induced NF-κB activity
